From patent US20220050096A1, “ANALYTE-SENSITIVE PROBES AND CONTACT LENS FOR DIAGNOSIS OF OCULAR PATHOLOGIES” (University Of Maryland, Baltimore, priority 2020, published 2022)

Experiment: Sodium-dependent intensity decays of SG in 20 mM MOPS buffer, 8 mM KCl
Type: physicochemical
Set-up: key to α1 / α2 / α3 / f1 / f2 / f3: fractional amplitudes (α) and intensity fractions (f); Σαi=1.0, Σfi=1.0
Method: Fluorescence Spectroscopic Measurements. Fluorescence intensities and intensity decays were measured using a Varian™ Eclipse 4 spectrofluorometer and a FluoTime300 instrument from PicoQuant™ (Berlin, Germany) and analyzed with the EasyTau™ software. The excitation source was a 473 nm laser diode with a repetition rate of 40 MHZ and a pulse width less than 100 ps. In other embodiments, the excitation source for SG-PL was at 495 nm from a Solea™ supercontinuum laser (PicoQuant™, Germany) and a 375 nm laser diode (PDL 375, PicoQuant™), a repetition rate of 40 MHz, and a pulse width less than 100 ps. Some intensity and lifetime measurements for SG-PL (as indicated) were performed using Alba V confocal fluorescence lifetime microscopy, FLIM (ISS, Urbana, Ill.), with excitation source of a 473 nm laser diode with a repetition rate of 40 MHz and a pulse width near 250 ps.
Intensity decays were measured at the emission maximum with the band of 10 to 20 nm, analyzed in terms of the multi-exponential model:
I(t)=Σαi exp(−t/ti) (equation 1)
where ti are the individual decay times and αi the initial time-zero amplitudes. The mean decay time can be represented in two ways. The average lifetime is given by:
where Σαi=1.0 and Σfi=1.0. The term fi=αi τi is proportional to the fractional contribution of each component to the total intensity decay. The term τi/Σαi τi is the fractional contribution to the steady state emission. Here, we use the amplitude-weighted lifetime given by
which is appropriate when the emission is from a single fluorophore with a changing quantum yield. For a single exponential decay, the lifetime is given by τ=1.0/(knr+Γ) and the quantum yield is given by Q=Γ/(knr+Γ) where knr is the sum of all non-radiative decay rates and Γ is the radiative decay rate. The value of Γ is determined by the molecular extinction coefficient that remains constant under most conditions. For a single type of fluorophore with a constant value of Γ the normalized αi values represent the molecular fraction of each decay time component. The value of αi and τi were determined by non-linear least squares fitting using PicoQuant™ software.
Three decay time components were required for the intensity decays. Fluorescence anisotropy decays were determined by individual measurements of the polarized intensity decays with corrections for the G-factor. Resolution of multi-exponential decays is not necessary. The average lifetime can be used as a single measurement. […]

[1] = NaCl 0 mM, 20 mM MOPS buffer 8 mM KCl
[2] = NaCl 5 mM, 20 mM MOPS buffer 8 mM KCl
[3] = NaCl 10 mM, 20 mM MOPS buffer 8 mM KCl
[4] = NaCl 20 mM, 20 mM MOPS buffer 8 mM KCl
[5] = NaCl 30 mM, 20 mM MOPS buffer 8 mM KCl
[6] = NaCl 50 mM, 20 mM MOPS buffer 8 mM KCl
[7] = NaCl 90 mM, 20 mM MOPS buffer 8 mM KCl
[8] = NaCl 150 mM, 20 mM MOPS buffer 8 mM KCl
[9] = NaCl 210 mM, 20 mM MOPS buffer 8 mM KCl

Compound: COc1cc(N2CCOCCOCCN(c3cc(OC)c(NC(=O)c4ccc(-c5c6cc(Cl)c(=O)cc-6oc6cc([O-])c(Cl)cc56)c(C(=O)[O-])c4)cc3OC)CCOCC2)c(OC)cc1NC(=O)c1ccc(-c2c3cc(Cl)c(=O)cc-3oc3cc([O-])c(Cl)cc23)c(C(=O)[O-])c1.C[N+](C)(C)C.C[N+](C)(C)C.C[N+](C)(C)C.C[N+](C)(C)C [SG]
- f1 (NaCl 0 mM, MOPS buffer): 0.272
- f2 (NaCl 0 mM, MOPS buffer): 0.174
- f3 (NaCl 0 mM, MOPS buffer): 0.554
- α1 (NaCl 0 mM, MOPS buffer): 0.703
- α2 (NaCl 0 mM, MOPS buffer): 0.155
- α3 (NaCl 0 mM, MOPS buffer): 0.142
- τ1 (NaCl 0 mM, MOPS buffer): 0.36 ns
- τ2 (NaCl 0 mM, MOPS buffer): 1.03 ns
- τ3 (NaCl 0 mM, MOPS buffer): 3.59 ns
- τf (NaCl 0 mM, MOPS buffer): 2.27 ns
- τα (NaCl 0 mM, MOPS buffer): 0.92 ns
- f1 [1]: 0.272
- f2 [1]: 0.174
- f3 [1]: 0.554
- α1 [1]: 0.703
- α2 [1]: 0.155
- α3 [1]: 0.142
- τ1 [1]: 0.36 ns
- τ2 [1]: 1.03 ns
- τ3 [1]: 3.59 ns
- τf [1]: 2.27 ns
- τα [1]: 0.92 ns
- f1 (NaCl 5 mM, MOPS buffer): 0.111
- f2 (NaCl 5 mM, MOPS buffer): 0.223
- f3 (NaCl 5 mM, MOPS buffer): 0.666
- α1 (NaCl 5 mM, MOPS buffer): 0.439
- α2 (NaCl 5 mM, MOPS buffer): 0.244
- α3 (NaCl 5 mM, MOPS buffer): 0.317
- τ1 (NaCl 5 mM, MOPS buffer): 0.39 ns
- τ2 (NaCl 5 mM, MOPS buffer): 1.44 ns
- τ3 (NaCl 5 mM, MOPS buffer): 3.28 ns
- τf (NaCl 5 mM, MOPS buffer): 2.55 ns
- τα (NaCl 5 mM, MOPS buffer): 1.57 ns
- f1 [2]: 0.111
- f2 [2]: 0.223
- f3 [2]: 0.666
- α1 [2]: 0.439
- α2 [2]: 0.244
- α3 [2]: 0.317
- τ1 [2]: 0.39 ns
- τ2 [2]: 1.44 ns
- τ3 [2]: 3.28 ns
- τf [2]: 2.55 ns
- τα [2]: 1.57 ns
- f1 (NaCl 10 mM, MOPS buffer): 0.078
- f2 (NaCl 10 mM, MOPS buffer): 0.224
- f3 (NaCl 10 mM, MOPS buffer): 0.699
- α1 (NaCl 10 mM, MOPS buffer): 0.341
- α2 (NaCl 10 mM, MOPS buffer): 0.276
- α3 (NaCl 10 mM, MOPS buffer): 0.383
- τ1 (NaCl 10 mM, MOPS buffer): 0.40 ns
- τ2 (NaCl 10 mM, MOPS buffer): 1.43 ns
- τ3 (NaCl 10 mM, MOPS buffer): 3.22 ns
- τf (NaCl 10 mM, MOPS buffer): 2.60 ns
- τα (NaCl 10 mM, MOPS buffer): 1.77 ns
- f1 [3]: 0.078
- f2 [3]: 0.224
- f3 [3]: 0.699
- α1 [3]: 0.341
- α2 [3]: 0.276
- α3 [3]: 0.383
- τ1 [3]: 0.40 ns
- τ2 [3]: 1.43 ns
- τ3 [3]: 3.22 ns
- τf [3]: 2.60 ns
- τα [3]: 1.77 ns
- f1 (NaCl 20 mM, MOPS buffer): 0.094
- f2 (NaCl 20 mM, MOPS buffer): 0.355
- f3 (NaCl 20 mM, MOPS buffer): 0.551
- α1 (NaCl 20 mM, MOPS buffer): 0.324
- α2 (NaCl 20 mM, MOPS buffer): 0.353
- α3 (NaCl 20 mM, MOPS buffer): 0.323
- τ1 (NaCl 20 mM, MOPS buffer): 0.57 ns
- τ2 (NaCl 20 mM, MOPS buffer): 2.00 ns
- τ3 (NaCl 20 mM, MOPS buffer): 3.39 ns
- τf (NaCl 20 mM, MOPS buffer): 2.63 ns
- τα (NaCl 20 mM, MOPS buffer): 1.99 ns
- f1 [4]: 0.094
- f2 [4]: 0.355
- f3 [4]: 0.551
- α1 [4]: 0.324
- α2 [4]: 0.353
- α3 [4]: 0.323
- τ1 [4]: 0.57 ns
- τ2 [4]: 2.00 ns
- τ3 [4]: 3.39 ns
- τf [4]: 2.63 ns
- τα [4]: 1.99 ns
- f1 (NaCl 30 mM, MOPS buffer): 0.068
- f2 (NaCl 30 mM, MOPS buffer): 0.295
- f3 (NaCl 30 mM, MOPS buffer): 0.638
- α1 (NaCl 30 mM, MOPS buffer): 0.255
- α2 (NaCl 30 mM, MOPS buffer): 0.349
- α3 (NaCl 30 mM, MOPS buffer): 0.396
- τ1 (NaCl 30 mM, MOPS buffer): 0.54 ns
- τ2 (NaCl 30 mM, MOPS buffer): 1.72 ns
- τ3 (NaCl 30 mM, MOPS buffer): 3.27 ns
- τf (NaCl 30 mM, MOPS buffer): 2.63 ns
- τα (NaCl 30 mM, MOPS buffer): 2.03 ns
- f1 [5]: 0.068
- f2 [5]: 0.295
- f3 [5]: 0.638
- α1 [5]: 0.255
- α2 [5]: 0.349
- α3 [5]: 0.396
- τ1 [5]: 0.54 ns
- τ2 [5]: 1.72 ns
- τ3 [5]: 3.27 ns
- τf [5]: 2.63 ns
- τα [5]: 2.03 ns
- f1 (NaCl 50 mM, MOPS buffer): 0.081
- f2 (NaCl 50 mM, MOPS buffer): 0.349
- f3 (NaCl 50 mM, MOPS buffer): 0.570
- α1 (NaCl 50 mM, MOPS buffer): 0.259
- α2 (NaCl 50 mM, MOPS buffer): 0.380
- α3 (NaCl 50 mM, MOPS buffer): 0.361
- τ1 (NaCl 50 mM, MOPS buffer): 0.66 ns
- τ2 (NaCl 50 mM, MOPS buffer): 1.95 ns
- τ3 (NaCl 50 mM, MOPS buffer): 3.35 ns
- τf (NaCl 50 mM, MOPS buffer): 2.64 ns
- τα (NaCl 50 mM, MOPS buffer): 2.12 ns
- f1 [6]: 0.081
- f2 [6]: 0.349
- f3 [6]: 0.570
- α1 [6]: 0.259
- α2 [6]: 0.380
- α3 [6]: 0.361
- τ1 [6]: 0.66 ns
- τ2 [6]: 1.95 ns
- τ3 [6]: 3.35 ns
- τf [6]: 2.64 ns
- τα [6]: 2.12 ns
- f1 (NaCl 90 mM, MOPS buffer): 0.074
- f2 (NaCl 90 mM, MOPS buffer): 0.380
- f3 (NaCl 90 mM, MOPS buffer): 0.545
- α1 (NaCl 90 mM, MOPS buffer): 0.242
- α2 (NaCl 90 mM, MOPS buffer): 0.416
- α3 (NaCl 90 mM, MOPS buffer): 0.342
- τ1 (NaCl 90 mM, MOPS buffer): 0.64 ns
- τ2 (NaCl 90 mM, MOPS buffer): 1.93 ns
- τ3 (NaCl 90 mM, MOPS buffer): 3.36 ns
- τf (NaCl 90 mM, MOPS buffer): 2.61 ns
- τα (NaCl 90 mM, MOPS buffer): 2.11 ns
- f1 [7]: 0.074
- f2 [7]: 0.380
- f3 [7]: 0.545
- α1 [7]: 0.242
- α2 [7]: 0.416
- α3 [7]: 0.342
- τ1 [7]: 0.64 ns
- τ2 [7]: 1.93 ns
- τ3 [7]: 3.36 ns
- τf [7]: 2.61 ns
- τα [7]: 2.11 ns
- f1 (NaCl 150 mM, MOPS buffer): 0.116
- f2 (NaCl 150 mM, MOPS buffer): 0.699
- f3 (NaCl 150 mM, MOPS buffer): 0.185
- α1 (NaCl 150 mM, MOPS buffer): 0.305
- α2 (NaCl 150 mM, MOPS buffer): 0.605
- α3 (NaCl 150 mM, MOPS buffer): 0.091
- τ1 (NaCl 150 mM, MOPS buffer): 0.81 ns
- τ2 (NaCl 150 mM, MOPS buffer): 2.48 ns
- τ3 (NaCl 150 mM, MOPS buffer): 4.38 ns
- τf (NaCl 150 mM, MOPS buffer): 2.64 ns
- τα (NaCl 150 mM, MOPS buffer): 2.15 ns
- f1 [8]: 0.116
- f2 [8]: 0.699
- f3 [8]: 0.185
- α1 [8]: 0.305
- α2 [8]: 0.605
- α3 [8]: 0.091
- τ1 [8]: 0.81 ns
- τ2 [8]: 2.48 ns
- τ3 [8]: 4.38 ns
- τf [8]: 2.64 ns
- τα [8]: 2.15 ns
- f1 (NaCl 210 mM, MOPS buffer): 0.074
- f2 (NaCl 210 mM, MOPS buffer): 0.377
- f3 (NaCl 210 mM, MOPS buffer): 0.549
- α1 (NaCl 210 mM, MOPS buffer): 0.224
- α2 (NaCl 210 mM, MOPS buffer): 0.424
- α3 (NaCl 210 mM, MOPS buffer): 0.352
- τ1 (NaCl 210 mM, MOPS buffer): 0.70 ns
- τ2 (NaCl 210 mM, MOPS buffer): 1.88 ns
- τ3 (NaCl 210 mM, MOPS buffer): 3.29 ns
- τf (NaCl 210 mM, MOPS buffer): 2.57 ns
- τα (NaCl 210 mM, MOPS buffer): 2.12 ns
- f1 [9]: 0.074
- f2 [9]: 0.377
- f3 [9]: 0.549
- α1 [9]: 0.224
- α2 [9]: 0.424
- α3 [9]: 0.352
- τ1 [9]: 0.70 ns
- τ2 [9]: 1.88 ns
- τ3 [9]: 3.29 ns
- τf [9]: 2.57 ns
- τα [9]: 2.12 ns
